Tests used:
[1] = system: DIO-NASH mice; test: DIO animal model of NAFLD/NASH (Example 15); type: in vivo; settings: 0.03% in AMLN diet, vs DIO-NASH vehicle
Description: The effect of 8 weeks of treatment for the indicated compounds on metabolic liver disease in pre-biopsied, 43-week old male DIO-NASH mice was evaluated (12 animals per group). Male C57BL/6JRj mice were fed 40% fat (18% trans-fat), 40% carbohydrate (20% fructose), and 2% Cholesterol (AMLN) diet for 38 weeks. All mice entering the experiment were pre-biopsied stratified based on liver biopsy (only animals with fibrosis stage ≥1 and steatosis score ≥2 were included). Animals were randomized into groups based on Col1a1 immunostaining. Mice were treated for a total of 8 weeks of dosing (drugs in diet, ad lib). […] Elafibranor was supplied by the vendor. Body weight was measured daily for the entire study period. Food intake was monitored daily for first 14 days and then twice a week until study end. Day 28 collection of tail vein blood/serum and feces. Terminal plasma was collected for biomarker determination of liver transaminases (ALT, AST), triglyceride and cholesterol. Terminal liver was removed, weighed, and sampled for 1) FFPE (histology), 2) frozen (biochemistry and nucleic acid). Liver biopsy histology: pre- and post-treatment NAFLD Activity Score (HE) including Fibrosis Stage (PSR), 2) post-treatment steatosis (HE), 3) post-treatment lipid-droplet #+size (HE), 4) post-treatment Galectin-3 (IHC), 5) pre- and post-treatment Collagen 1a1 (IHC), 6) post-treatment α-SMA (IHC). […]

[2] = system: Primary human subcutaneous adipocytes; test: Glucose uptake in human subcutaneous adipocytes, insulin resistant model; type: cell-based
[3] = system: Mouse myocyte; test: Mouse myocyte lipolysis assay; type: cell-based
[4] = system: Primary human subcutaneous adipocytes; test: Glucose uptake in human subcutaneous adipocytes, insulin sensitive model; type: cell-based
[5] = system: Mouse 3T3-L1 cells; test: Mouse adipocyte lipolysis assay; type: cell-based; settings: 24 hours
Description: Once the cells became confluent, they were seeded into a tissue culture treated 96 well plate. […] After 14 days of differentiation, cells were treated with compounds of interest. After 24 hours post-treatment, the cell viability was assessed using CellTiter-Glo Luminescent Cell Viability Assay from Promega, and lipolysis was determined using Lipolysis Assay Kit from ZenBio.

[6] = system: naïve CD4+ T cells; test: Human regulatory T cell differentiation assay; type: cell-based; settings: 6 days
In short: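 Naïve CD4+ T cells from healthy-donor PBMCs cultured 6 days in OpTmizer medium with 5 ng/ml TGF-β, 100 U/ml IL-2 and CD3/CD28/CD2 activator, with or without compound. Tregs (live CD4+CD3+CD25+FOXP3+, lineage-negative) measured by flow cytometry and expressed as % of total CD4+ T cells.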

[7] = system: Caco-2 colonocytes; test: Human Caco-2 barrier integrity assay (TEER); type: cell-based; settings: 48 hours
Description: Caco-2 colonocytes were maintained at 37° C. and 5% CO2 in Dulbecco's Modified Eagle Medium (DMEM) and supplemented with 10% FBS, 1% NEAA, 1% penicillin-streptomycin. At 70-80% confluency, cells were trypsinized and seeded in 0.4 cm^2 transwell collagen I coated membranes with supplemented DMEM in both apical and basolateral compartments. Cells were seeded at a density of 200,000 cells per well and maintained for 10 days to form a polarized barrier with a TransEpithelial Electrial Resistance (TEER) reading above 1000Ω. On the first day of the assay, initial TEER readings were taken and cytokines were added to the basolateral media (50 ng/mL TNFα, 25 ng/mL IFNγ and 10 ng/mL IL-1β) to reduce barrier integrity while compounds diluted in (dimethylsulfoxide) DMSO were added to the apical media in triplicate. After 48 hours, TEER readings were taken again and viability was measured by CellTiter 96® AQueous One Solution Cell Proliferation Assay (Promega). The percent change in TEER over the 48 hours was determined and normalized to the 0.1% DMSO control (Table 6).

[8] = system: AhR; test: AhR activation in Caco-2 cells through CYP1A1 mRNA expression
Description: Caco-2 cells from American Type Culture Collection (ATCC) were plated in a sterile tissue culture treated 96-well plate (ThermoFisher) at […] per well, and grown overnight at 37° C., 5% CO2 in DMEM complete (Gibco) in order to achieve confluence. After the incubation medium was aspirated from the Caco-2 monolayers, tissues were then washed with 200 μL of warmed PBS solution, and subsequently 190 μL of pre-warmed growth medium was added to each well. Compounds of interest were diluted at a 20× concentration in growth medium containing 2% DMSO, and 10 μL of compound solutions were added to respective wells in triplicate. Compounds where incubated overnight at 37° C., 5% CO2. 2-(1′H-indole-3′-carbonyl)-thiazole-4-carboxylic acid methyl ester (ITE) was used as the positive control for AhR activation at 1 and 100 μM concentrations. At the end of the incubation, medium was aspirated off of the Caco-2 cells, and washed with 100 μL of cold PBS solution. RNA was extracted via the TaqMan™ Gene Expression Cells-to-CT™ Kit (ThermoFisher) according to the manufacturers protocol. The QuantStudio 6 Flex (Applied Biosciences) was used to analyze mRNA levels of CYP1A1 using GAPDH as the endogenous control. TaqMan™ probe sets for both genes were acquired from ThermoFisher. Samples were run in triplicate and data was analyzed using the QuantStudio software and reported as linear (Table 1) and log 2(ΔΔCT) values. Statistical analysis was performed using a two-tailed t-test comparing CYP1A1 levels in the presence of each individual compound to the vehicle negative control.

## CSc1ccc(C(=O)/C=C/c2cc(C)c(OC(C)(C)C(=O)O)c(C)c2)cc1 [Elafibranor]
[1]
  liver fibrosis, Picro Sirius red (FIG. 49B): the fibrosis is finer
  liver morphology: lipid vacuole size (FIG. 48B): the vacuoles are smaller

## O=C(O[C@@H]1Cc2c(O)cc(O)cc2O[C@@H]1c1cc(O)c(O)c(O)c1)c1cc(O)c(O)c(O)c1 [EGCG, epigallocatechin gallate]
[2]; 100 nM
  Insulin Resistant % DMSO (glucose uptake): + (110%> ≤140%: +)
[2]; 10 μM
  Insulin Resistant % DMSO (glucose uptake): = (50%> ≤110%: =)
[3]; 100 nM
  Free glycerol % DMSO: + (70%> <90%: +)
[3]; 1 μM
  Free glycerol % DMSO: + (70%> <90%: +)
[4]; 100 nM
  Insulin Sensitive % DMSO (glucose uptake): = (50%> ≤110%: =)
[4]; 10 μM
  Insulin Sensitive % DMSO (glucose uptake): = (50%> ≤110%: =)
[5]; 100 nM
  Lipolysis Free Fatty Acids % DMSO: ++ (50> ≤70%: ++)
  Lipolysis Glycerol % change: + (70%> ≤90%: +)
[5]; 1 μM
  Lipolysis Free Fatty Acids % DMSO: ++ (50> ≤70%: ++)
  Lipolysis Glycerol % change: + (70%> ≤90%: +)
[6]; 100 nM
  Cell viability % DMSO: = (90%≥ ≤110%: =)
  Treg induction % DMSO: = (90%≥ ≤110%: =)
[6]; 1 uM
  Cell viability % DMSO: = (90%≥ ≤110%: =)
  Treg induction % DMSO: = (90%≥ ≤110%: =)
[7]; 100 nM + cytokines
  % Change in TEER from DMSO: − (≤125%: −)
[7]; 1 μM + cytokines
  % Change in TEER from DMSO: − (≤125%: −)
[8]; Conc. 0.1 μM
  Average CYP1A1 mRNA levels: − (− = +2-fold Vehicle)
[8]; Conc. 1.0 μM
  Average CYP1A1 mRNA levels: − (− = +2-fold Vehicle)
